Reference: ChEMBL document CHEMBL1909046, “DrugMatrix in vitro pharmacology data”

Experiments:
[1] = target: T1, Calcitonin receptor (Homo sapiens, UniProt P30988); assay type: cell membranes, Membrane; conditions: t47d; further: in other assays of this panel Not Active means under 50% inhibition at 10 µM
T1 sequence (P30988 whole entry): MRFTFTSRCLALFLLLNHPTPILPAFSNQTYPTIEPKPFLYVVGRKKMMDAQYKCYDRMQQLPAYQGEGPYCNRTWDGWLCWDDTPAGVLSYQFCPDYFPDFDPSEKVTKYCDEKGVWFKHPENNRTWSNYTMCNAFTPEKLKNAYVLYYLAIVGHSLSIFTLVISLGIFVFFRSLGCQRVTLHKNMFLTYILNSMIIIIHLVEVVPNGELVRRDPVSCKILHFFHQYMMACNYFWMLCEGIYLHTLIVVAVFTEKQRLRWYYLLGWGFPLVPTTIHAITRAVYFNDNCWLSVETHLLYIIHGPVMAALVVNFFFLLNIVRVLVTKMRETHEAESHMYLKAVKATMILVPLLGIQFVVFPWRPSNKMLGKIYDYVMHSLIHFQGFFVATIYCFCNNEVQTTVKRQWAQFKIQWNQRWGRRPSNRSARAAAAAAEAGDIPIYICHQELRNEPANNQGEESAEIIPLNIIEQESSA

[2] = DRUGMATRIX: Phosphodiesterase PDE3 enzyme inhibition (substrate: [3H]cAMP + cAMP); assay type: tissue-based, Homo sapiens; conditions: platelet; Not Active = under 50% inhibition at 10 µM
[3] = target: T2, D(4) dopamine receptor (Homo sapiens, UniProt P21917); assay: DRUGMATRIX: Dopamine D4.2 radioligand binding (ligand: [3H] Spiperone); assay type: cell membranes, CHO-K1, Membrane; conditions: cho-k1; Not Active = under 50% inhibition at 10 µM
T2 sequence (P21917 whole entry): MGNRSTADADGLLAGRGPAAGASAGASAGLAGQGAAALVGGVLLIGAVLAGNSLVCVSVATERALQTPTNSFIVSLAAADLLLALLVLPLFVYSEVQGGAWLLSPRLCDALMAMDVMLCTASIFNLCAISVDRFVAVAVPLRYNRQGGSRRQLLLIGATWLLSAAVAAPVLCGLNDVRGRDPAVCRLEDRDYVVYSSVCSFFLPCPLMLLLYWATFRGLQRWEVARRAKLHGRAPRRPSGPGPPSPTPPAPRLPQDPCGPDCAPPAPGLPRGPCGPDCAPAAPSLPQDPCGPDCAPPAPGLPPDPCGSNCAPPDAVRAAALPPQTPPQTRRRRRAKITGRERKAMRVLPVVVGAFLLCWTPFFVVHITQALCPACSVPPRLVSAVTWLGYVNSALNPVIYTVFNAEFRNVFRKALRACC

[4] = target: T3, Adenosine receptor A3 (Homo sapiens, UniProt P0DMS8); assay type: cell membranes, CHO-K1, Membrane; conditions: cho-k1;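 further: radioligand binding assay with AB-MECA serving as the labeled ligand; in other assays of this panel Not Active means under 50% inhibition at 10 µM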
T3 sequence (P0DMS8 whole entry): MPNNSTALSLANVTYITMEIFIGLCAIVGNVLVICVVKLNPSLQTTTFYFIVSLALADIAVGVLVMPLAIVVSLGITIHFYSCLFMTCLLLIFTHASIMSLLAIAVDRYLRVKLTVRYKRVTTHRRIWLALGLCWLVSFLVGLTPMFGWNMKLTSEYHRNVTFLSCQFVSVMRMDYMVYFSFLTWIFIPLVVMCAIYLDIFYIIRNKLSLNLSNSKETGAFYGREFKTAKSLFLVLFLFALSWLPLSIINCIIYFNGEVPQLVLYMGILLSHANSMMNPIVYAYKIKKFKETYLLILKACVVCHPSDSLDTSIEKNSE

[5] = target: Platelet-activating factor receptor (Homo sapiens, UniProt P25105); assay type: tissue-based; further: in other assays of this panel Not Active means under 50% inhibition at 10 µM
Chain of Platelet-activating factor receptor (P25105 whole entry): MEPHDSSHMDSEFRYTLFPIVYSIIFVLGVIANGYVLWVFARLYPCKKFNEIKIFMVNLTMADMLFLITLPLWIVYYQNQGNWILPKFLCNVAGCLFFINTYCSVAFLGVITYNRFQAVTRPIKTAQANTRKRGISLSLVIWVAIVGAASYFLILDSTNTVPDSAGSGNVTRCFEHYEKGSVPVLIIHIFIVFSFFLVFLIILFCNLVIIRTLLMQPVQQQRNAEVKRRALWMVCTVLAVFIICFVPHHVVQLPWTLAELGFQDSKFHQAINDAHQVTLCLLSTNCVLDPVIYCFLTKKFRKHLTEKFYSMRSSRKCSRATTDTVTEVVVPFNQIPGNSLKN

[6] = target: T4, Angiotensin-converting enzyme (Oryctolagus cuniculus, UniProt P12822); assay type: tissue-based, Lung;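 further: enzymatic inhibition of angiotensin-converting enzyme measured with FAPGG as the substrate; in other assays of this panel Not Active means under 50% inhibition at 10 µM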
T4 sequence (P12822 whole entry): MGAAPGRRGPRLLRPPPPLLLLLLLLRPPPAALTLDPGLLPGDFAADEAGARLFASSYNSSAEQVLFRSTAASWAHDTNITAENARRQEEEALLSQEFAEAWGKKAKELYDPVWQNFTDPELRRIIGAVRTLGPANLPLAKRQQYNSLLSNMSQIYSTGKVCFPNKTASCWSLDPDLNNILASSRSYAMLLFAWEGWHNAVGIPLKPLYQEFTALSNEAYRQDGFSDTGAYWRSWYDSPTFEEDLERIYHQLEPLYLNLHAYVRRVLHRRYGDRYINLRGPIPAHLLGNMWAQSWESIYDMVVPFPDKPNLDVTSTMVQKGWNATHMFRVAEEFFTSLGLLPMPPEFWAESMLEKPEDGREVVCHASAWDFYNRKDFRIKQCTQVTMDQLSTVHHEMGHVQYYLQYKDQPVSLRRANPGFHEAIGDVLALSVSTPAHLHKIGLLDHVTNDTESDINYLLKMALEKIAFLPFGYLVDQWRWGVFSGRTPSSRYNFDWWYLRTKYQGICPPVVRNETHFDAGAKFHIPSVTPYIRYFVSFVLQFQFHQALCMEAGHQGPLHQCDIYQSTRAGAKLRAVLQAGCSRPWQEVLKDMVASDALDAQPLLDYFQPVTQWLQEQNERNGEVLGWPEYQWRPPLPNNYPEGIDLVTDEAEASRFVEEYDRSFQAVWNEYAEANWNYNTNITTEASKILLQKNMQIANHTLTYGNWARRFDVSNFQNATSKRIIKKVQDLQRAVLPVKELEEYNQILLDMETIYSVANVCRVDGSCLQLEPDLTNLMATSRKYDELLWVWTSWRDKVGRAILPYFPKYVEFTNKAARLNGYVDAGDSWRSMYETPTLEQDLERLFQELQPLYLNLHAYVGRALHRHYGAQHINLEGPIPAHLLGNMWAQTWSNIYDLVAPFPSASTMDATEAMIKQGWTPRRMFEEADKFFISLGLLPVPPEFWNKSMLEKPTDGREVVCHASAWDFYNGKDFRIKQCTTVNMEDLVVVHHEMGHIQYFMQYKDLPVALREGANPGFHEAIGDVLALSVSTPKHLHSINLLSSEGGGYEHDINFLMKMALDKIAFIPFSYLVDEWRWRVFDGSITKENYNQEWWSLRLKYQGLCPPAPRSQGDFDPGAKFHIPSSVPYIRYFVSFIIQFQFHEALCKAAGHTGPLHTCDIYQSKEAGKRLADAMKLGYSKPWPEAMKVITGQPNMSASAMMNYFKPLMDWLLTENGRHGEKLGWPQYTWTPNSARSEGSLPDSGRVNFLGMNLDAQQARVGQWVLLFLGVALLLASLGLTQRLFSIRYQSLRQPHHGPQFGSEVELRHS

GENTAMICIN
Not Active: IC50 [1] | Ki [1] | IC50 [2] | Ki [2] | IC50 [3] | Ki [3] | IC50 [4] | Ki [4] | IC50 [5] | Ki [5] | IC50 [6] | Ki [6]

GRAMICIDIN
Not Active: IC50 [1] | Ki [1] | IC50 [2] | Ki [2] | IC50 [3] | Ki [3] | IC50 [4] | Ki [4] | IC50 [5] | Ki [5] | IC50 [6] | Ki [6]

NYSTATIN
Not Active: IC50 [1] | Ki [1] | IC50 [2] | Ki [2] | IC50 [3] | Ki [3] | IC50 [4] | Ki [4] | IC50 [5] | Ki [5] | IC50 [6] | Ki [6]
